Assay results as given in ChEMBL document CHEMBL2086319, “From the first selective non-peptide AT(2) receptor agonist to structurally related antagonists” (J Med Chem, 2012).
The source made the active and inactive calls. The calls are words filed in the database; no cut-off is given here.

Experiments:
[1] = Displacement of [125I]Ang 2 from rat liver membrane AT1 receptor after 2 hrs by micro-counter
[2] = Displacement of [125I]Ang 2 from pig uterus membrane AT2 receptor after 1.5 hrs by micro-counter; set-up: species or system Sus scrofa
[3] = test system: NG108-15; assay: Induction of neurite outgrowth in mouse/rat NG108-15 cells at 10 nM after 3 days by phase contrast microscopy; assay type: functional, cell-based
[4] = test system: NG108-15; assay: Inhibition of Ang 2-induced neurite outgrowth in mouse/rat NG108-15 cells at 10 nM after 3 days by phase contrast microscopy; assay type: functional, cell-based
[5] = test system: NG108-15; assay: Induction of neurite outgrowth in mouse/rat NG108-15 cells at 10 nM after 3 days by phase contrast microscopy in presence of PD123,319; assay type: functional, cell-based
[6] = test system: NG108-15; assay: Induction of neurite outgrowth in mouse/rat NG108-15 cells at 1 nM after 3 days by phase contrast microscopy in presence of PD123,319; assay type: functional, cell-based
[7] = test system: NG108-15; assay: Effect on neurite outgrowth in mouse/rat NG108-15 cells assessed as morphological changes at 10 uM after 3 days by phase contrast microscopy; assay type: functional, cell-based

Row | Ki [1] [nM] | Ki [2] [nM] | SMILES | also measured
1 | > 10000 | 147 | CCCCOC(=O)NS(=O)(=O)c1sc(CC(C)C)cc1-c1cccc(CN2C(=O)CCC2=O)c1 | 
2 | > 10000 | 20 | CCCCOC(=O)NS(=O)(=O)c1sc(CC(C)C)cc1-c1cccc(C(=O)Cn2cnc3ccccc32)c1 | Activity [3]: inactive; inhibition [4]: Active; Activity [5]: Active
3 | > 10000 | 45 | CCCCOC(=O)NS(=O)(=O)c1sc(CC(C)C)cc1-c1cccc(CN(C)C(=O)OCC)c1 | 
4 | > 10000 | 224 | CCCCOC(=O)NS(=O)(=O)c1sc(CC(C)C)cc1-c1cccc(CN2CCCC2=O)c1 | 
5 | > 10000 | 46 | CCCCOC(=O)NS(=O)(=O)c1sc(CC(C)C)cc1-c1cccc(CN(C(=O)c2ccccc2)c2ccc(C)cc2)c1 | 
6 | > 10000 | 79 | CCCCOC(=O)NS(=O)(=O)c1sc(CC(C)C)cc1-c1cccc(CN(Cc2ccccc2)C(C)=O)c1 | 
7 | > 10000 | 670 | CCCCOC(=O)NS(=O)(=O)c1sc(CC(C)C)cc1-c1cccc(CN(Cc2ccccc2)C(=O)c2cccs2)c1 | 
8 | > 10000 | 83 | CCCCOC(=O)NS(=O)(=O)c1sc(CC(C)C)cc1-c1cccc(CN(Cc2cccnc2)C(C)=O)c1 | 
9 | > 10000 | 133 | CCCCOC(=O)NS(=O)(=O)c1sc(CC(C)C)cc1-c1cccc(CN(CC)S(=O)(=O)c2cccs2)c1 | 
10 | > 10000 | 8 | CCCCOC(=O)NS(=O)(=O)c1sc(CC(C)C)cc1-c1cccc(Cn2ccnc2CC)c1 | 
11 | > 10000 | 233 | CCCCOC(=O)NS(=O)(=O)c1sc(CC(C)C)cc1-c1cccc(Cn2ccc(C(F)(F)F)n2)c1 | 
12 | > 10000 | 1.6 | CCCCOC(=O)NS(=O)(=O)c1sc(CC(C)C)cc1-c1cccc(CN(C)C(=O)C(=O)OCC)c1 | Activity [6]: Active
13 |  |  | Cc1cc(Cn2cnc3c2C[C@@H](C(=O)O)N(C(=O)C(c2ccccc2)c2ccccc2)C3)ccc1N(C)C | Activity [7]: inactive
14 | > 10000 | 28 | CCCCOC(=O)NS(=O)(=O)c1sc(CC(C)C)cc1-c1cccc(Cn2ccnc2-c2cccs2)c1 | 
15 | > 10000 | 66 | CCCCOC(=O)NS(=O)(=O)c1sc(CC(C)C)cc1-c1cccc(Cn2cnc3cccnc32)c1 | 
16 | > 10000 | 29 | CCCCOC(=O)NS(=O)(=O)c1sc(CC(C)C)cc1-c1cccc(Cn2ccnc2C)c1 | 
17 | > 10000 | 56 | CCCCOC(=O)NS(=O)(=O)c1sc(CC(C)C)cc1-c1cccc(CN(C)C(=O)CCCC)c1 | 
18 | > 10000 | > 10000 | CCCCOC(=O)NS(=O)(=O)c1sc(CC(C)C)cc1-c1cccc(CN(C)S(C)(=O)=O)c1 | 
19 | > 10000 | 55 | CCCCOC(=O)NS(=O)(=O)c1sc(CC(C)C)cc1-c1cccc(CN(C)C=O)c1 | 
20 | > 10000 | 33 | CCCCOC(=O)NS(=O)(=O)c1sc(CC(C)C)cc1-c1cccc(Cn2ccnc2-c2ccsc2)c1 | 

Row | Ki [1] [nM] | Ki [2] [nM] | SMILES | also measured
21 | > 10000 | 2.2 | CCCCOC(=O)NS(=O)(=O)c1sc(CC(C)C)cc1-c1cccc(CN(CC)C(=O)c2cccs2)c1 | 
22 | > 10000 | 13 | CCCCOC(=O)NS(=O)(=O)c1sc(CC(C)C)cc1-c1cccc(CN(C)C(=O)c2cccs2)c1 | 
23 | > 10000 | 120 | CCCCOC(=O)NS(=O)(=O)c1sc(CC(C)C)cc1-c1cccc(CN(C(C)=O)c2ccc(C)cc2)c1 | 
24 | > 10000 | 163 | CCCCOC(=O)NS(=O)(=O)c1sc(CC(C)C)cc1-c1cccc(CN(CC(F)(F)F)C(=O)C2CC2)c1 | 
25 | > 10000 | 17 | CCCCOC(=O)NS(=O)(=O)c1sc(CC(C)C)cc1-c1cccc(Cn2ccnc2C(C)=O)c1 | 
26 | > 10000 | 29 | CCCCOC(=O)NS(=O)(=O)c1sc(CC(C)C)cc1-c1cccc(CN(CC)C(C)=O)c1 | 
27 | > 10000 | 47 | CCCCOC(=O)NS(=O)(=O)c1sc(CC(C)C)cc1-c1cccc(CN(Cc2cccnc2)C(=O)c2ccccc2)c1 | inhibition [4]: Active
28 | > 10000 | 44 | CCCCOC(=O)NS(=O)(=O)c1sc(CC(C)C)cc1-c1cccc(Cn2cnc3ncccc32)c1 | 
29 | > 10000 | 67 | CCCCOC(=O)NS(=O)(=O)c1sc(CC(C)C)cc1-c1cccc(Cn2ccnc2-c2ccccc2)c1 | 
30 | > 10000 | 110 | CCCCOC(=O)NS(=O)(=O)c1sc(CC(C)C)cc1-c1cccc(Cn2cccn2)c1 | 
31 | > 10000 | 72 | CCCCOC(=O)NS(=O)(=O)c1sc(CC(C)C)cc1-c1cccc(CN(CC(F)(F)F)C(C)=O)c1 | 
32 | > 10000 | 10 | CCCCOC(=O)NS(=O)(=O)c1sc(CC(C)C)cc1-c1cccc(Cn2ccnc2CCCC)c1 | 
33 | > 10000 | 35 | CCCCOC(=O)NS(=O)(=O)c1sc(CC(C)C)cc1-c1cccc(CN(Cc2ccccc2)C(=O)CCCC)c1 | 
34 | > 10000 | 32 | CCCCOC(=O)NS(=O)(=O)c1sc(CC(C)C)cc1-c1cccc(Cn2cnc3ccccc32)c1 | 
35 | > 10000 | 37 | CCCCOC(=O)NS(=O)(=O)c1sc(CC(C)C)cc1-c1cccc(CN2C(=O)CN(C)C2=O)c1 | 
36 | > 10000 | 9.2 | CCCCOC(=O)NS(=O)(=O)c1sc(CC(C)C)cc1-c1cccc(Cn2ccnc2Cl)c1 | Activity [3]: inactive; inhibition [4]: Active; Activity [5]: Active
37 | > 10000 | 28 | CCCCOC(=O)NS(=O)(=O)c1sc(CC(C)C)cc1-c1cccc(Cn2ccnc2-c2ccccn2)c1 | 
38 | > 10000 | 118 | CCCCOC(=O)NS(=O)(=O)c1sc(CC(C)C)cc1-c1cccc(CCn2ccnc2)c1 | 
39 | > 10000 | 29 | CCCCOC(=O)NS(=O)(=O)c1sc(CC(C)C)cc1-c1cccc(CN(C)C(C)=O)c1 | 
